Read-outs that look alike come from different tables or passages of the source. Values belong to the molecule of their own block, whether it stands above or below them. Starred links: 1 amine or outer side, 2 acyl side, 3 side chain; linkers in the order of their positions; H or OH if unused. Positions of bridges follow the written chain, without caps; N, C: chain ends. Non-standard residues stand in square brackets, D forms with d. Residues, ends and D or L forms follow the SMILES beside them. No end group written: not given here. *: point of attachment. X2 = COC1O[C@H](C(=O)[*:2])[C@@H](O)[C@H](O)[C@H]1N[*:1]; Dip = N[C@H](C(=O)O)C(c1ccccc1)c1ccccc1; Phe(4-NH2) = Nc1ccc(C[C@H](N)C(=O)O)cc1; Hydrocinnamoyl = O=C(CCc1ccccc1)*; Hyp = O=C(O)[C@@H]1C[C@@H](O)CN1; Cha = N[C@@H](CC1CCCCC1)C(=O)O; dCha = N[C@H](CC1CCCCC1)C(=O)O; AllylGly = C=CC[C@H](N)C(=O)O; Nle = CCCC[C@H](N)C(=O)O; Orn = NCCC[C@H](N)C(=O)O
Tests used:
[1] = Solubility determination for selected C5aR-antagonists; type: physicochemical; settings: for Solubility in 20 mM HEPES pH 7.4: 20 mM HEPES pH 7.4, 24 h at RT; for solubility: aqueous HEPES buffer (pH 7.4)
Protocol: Solubility of compounds was determined by the following procedure: 20 μl of a 10 mM stock solution (in DMSO) of the compound were diluted in 980 μl of the solvent to be tested. After incubation for 24 h at RT under shaking the samples are centrifuged at 11.000 rpm in an Eppendorf centrifuge. The supematant is determined by photometry. […] Therefor the compound was suspended at 10 mg/ml in the solvent systems of choice. The undissolved part was removed by centrifugation after 24 h. The UV-absorption of the supernatant was measured and compared to a respective reference value 60% MeOH).

human C5aR (CD88) [2] = molecular target: T1, human C5aR (CD88) (Homo sapiens, UniProt P21730); test: Determination of the IC50 value in an enzyme release assay (functional assay, antagonistic activity); type: cell-based; settings: for IC50-value compared to compound 40 (in words): arginine replaced by hydrophobic substitutions
T1 construct: expressed in transfected cells; host or cells: rat basophilic leukemia cells (RBL)
T1 sequence (P21730 1-350): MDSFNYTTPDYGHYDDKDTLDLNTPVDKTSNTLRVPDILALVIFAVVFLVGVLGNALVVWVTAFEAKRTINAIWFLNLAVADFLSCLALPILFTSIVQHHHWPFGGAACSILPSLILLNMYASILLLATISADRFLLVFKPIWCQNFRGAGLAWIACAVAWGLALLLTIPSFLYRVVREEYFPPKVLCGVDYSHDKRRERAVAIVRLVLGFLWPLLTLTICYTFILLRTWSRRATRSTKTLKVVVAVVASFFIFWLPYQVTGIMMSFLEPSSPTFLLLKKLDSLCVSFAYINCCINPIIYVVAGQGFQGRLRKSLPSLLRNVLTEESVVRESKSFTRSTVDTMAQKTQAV

human C5aR (CD88) [3] = molecular target: T1, human C5aR (CD88); test: Determination of EC50 values in an enzyme release assay (agonistic activity, no C5a added); type: cell-based; settings: for agonistic activity (in words): cellular assay, up to a concentration of at least 1430 nM
Protocol: The determination of the EC50 value was performed in a way similar to the procedure described in example 11, with the only exception that 30 μl of the compound to be tested were mixed with 75 μl of the cell suspension described in example 11. There was no preincubation or addition of C5a for stimulation of the enzyme release.

human C5aR (CD88) [4] = molecular target: T2, human C5aR (CD88) (human, UniProt P21730 1-350); test: cell-based or functional assay
T2 sequence (looked up): T1 sequence (P21730 1-350)

human C5aR (CD88) [5] = molecular target: T2, human C5aR (CD88); test: cell-based or functional assay; remark: listed apart in the source
[6] = noteworthy = IC50 of less than 200 nM in the functional assay

Solubility in 20 mM HEPES pH 7.4 [1]: 84 % of 200 μM | solubility [1]: 84%
Molecule: CCCC[C@@H]1NC(=O)[C@H](Cc2c[nH]c3ccccc23)NC(=O)[C@@H](CC2CCCCC2)NC(=O)[C@@H]2CCCN2C(=O)[C@@H](NC(=O)[C@H](Cc2ccccc2)NC(=O)[C@H]2OC(OC)[C@H](NC(C)=O)[C@@H](O)[C@@H]2O)CCCNC1=O (stereo partly drawn) [Compound 4, X-Phe-[Orn-Pro-cha-Trp-Nle]; X = 2-acetamido-1-methyl-glucuronyl] (Ac-[X2]F[Orn]P[dCha]W[Nle]; lactam 3-C)

Solubility in 20 mM HEPES pH 7.4 [1]: 8 % of 200 μM | solubility [1]: 8% | inhibitory activity (in words) (human C5aR (CD88) [2]; [6]): noteworthy inhibitory activity | agonistic activity (in words) (human C5aR (CD88) [3]): pure antagonists
Molecule: CC(=O)N[C@@H](Cc1ccccc1)C(=O)N[C@H]1CCCNC(=O)[C@H](Cc2ccccc2)NC(=O)[C@H](Cc2c[nH]c3ccccc23)NC(=O)[C@@H](CC2CCCCC2)NC(=O)[C@@H]2CCCN2C1=O [Compound 1, Ac-Phe-[Orn-Pro-cha-Trp-Phe]] (Ac-F[Orn]P[dCha]WF; lactam 2-C)
IC50-value compared to compound 40 (in words) (human C5aR (CD88) [2]): without a significant increase of the IC50-value

agonistic activity (in words) (human C5aR (CD88) [3]): pure antagonists
Molecule: CC(=O)N[C@@H](Cc1ccccc1)C(=O)N[C@@H](Cc1c[nH]c2ccccc12)C(=O)N1CCC[C@H]1C(=O)N[C@H](CC1CCCCC1)C(=O)N[C@@H](Cc1c[nH]c2ccccc12)C(=O)N[C@@H](Cc1ccccc1)C(N)=O [Compound 84, Ac-Phe-Trp-Pro-cha-Trp-Phe-NH2] (Ac-FWP[dCha]WF-NH2)

inhibitory activity (in words) (human C5aR (CD88) [2]; [6]): noteworthy inhibitory activity | agonistic activity (in words) (human C5aR (CD88) [3]): pure antagonists
Molecule: C=CC[C@@H]1NC(=O)[C@H](Cc2c[nH]c3ccccc23)NC(=O)[C@@H](CC2CCCCC2)NC(=O)[C@@H]2CCCN2C(=O)[C@@H](NC(=O)[C@H](Cc2ccccc2)NC(C)=O)CCCNC1=O [Compound 33, Ac-Phe-[Orn-Pro-cha-Trp-Eaf]] (Ac-F[Orn]P[dCha]W[AllylGly]; lactam 2-C)
IC50-value compared to compound 40 (in words) (human C5aR (CD88) [2]): without a significant increase of the IC50-value

Solubility in 20 mM HEPES pH 7.4 [1]: 22 % of 200 μM | solubility [1]: 22% | inhibitory activity (in words) (human C5aR (CD88) [2]; [6]): noteworthy inhibitory activity
Molecule: CCCC[C@@H]1NC(=O)[C@H](Cc2c[nH]c3ccccc23)NC(=O)[C@@H](CC2CCCCC2)NC(=O)[C@@H]2CCCN2C(=O)[C@@H](NC(=O)[C@H](Cc2ccccc2)NC(C)=O)CCCNC1=O [Compound 28, Ac-Phe-[Orn-Pro-cha-Trp-Nle]] (Ac-F[Orn]P[dCha]W[Nle]; lactam 2-C)
IC50-value compared to compound 40 (in words) (human C5aR (CD88) [2]): without a significant increase of the IC50-value

inhibitory activity (in words) (human C5aR (CD88) [2]; [6]): noteworthy inhibitory activity | agonistic activity (in words) (human C5aR (CD88) [3]): pure antagonists
Molecule: CCCC[C@@H]1NC(=O)[C@H](Cc2c[nH]c3ccccc23)NC(=O)[C@@H](CC2CCCCC2)NC(=O)[C@@H]2CCCN2C(=O)[C@@H](NC(=O)CCc2ccccc2)CCCNC1=O [Compound 41, Ph—CH2—CH2—CO-[Orn-Pro-cha-Trp-Nle]] (Hydrocinnamoyl-[Orn]P[dCha]W[Nle]; lactam 1-C)

agonistic activity (in words) (human C5aR (CD88) [3]): pure antagonists
Molecule: CC(=O)N[C@H](C(=O)N[C@@H](CCCN)C(=O)N1CCC[C@H]1C(=O)N[C@H](CC1CCCCC1)C(=O)N[C@@H](Cc1c[nH]c2ccccc12)C(=O)N[C@@H](Cc1ccccc1)C(N)=O)C(c1ccccc1)c1ccccc1 [Compound 71, Ac-Ebw-Orn-Pro-cha-Trp-Phe-NH2] (Ac-[Dip][Orn]P[dCha]WF-NH2)

IC50 activity group, enzyme release assay (human C5aR (CD88) [4]): > 2000 nM | IC50, enzyme release assay (human C5aR (CD88) [5]): 8700 nM
B2: Ac-Phe-[Orn-Pro-cha-Trp-Lys] (peptide)
peptide: Ac-F[Orn]P[dCha]WK
modifications: lactam (positions not given here); not fully specified (bridges); printed as Ac-Phe-[Orn-Pro-cha-Trp-Lys]

IC50 activity group, enzyme release assay (human C5aR (CD88) [4]): ≤ 50 nM | IC50, enzyme release assay (human C5aR (CD88) [5]): 30 nM
B3: Ac-Phe-[Orn-Pro-cha-Trp-Paf] (peptide)
peptide: Ac-F[Orn]P[dCha]W[Phe(4-NH2)]
modifications: lactam (positions not given here); not fully specified (bridges); printed as Ac-Phe-[Orn-Pro-cha-Trp-Paf]

The remaining lines, values behind:

Molecule: CC(=O)N[C@@H](Cc1ccccc1)C(=O)N[C@H]1CCCNC(=O)[C@H](CCCNC(=N)N)NC(=O)[C@H](Cc2c[nH]c3ccccc23)NC(=O)[C@@H](CC2CCCCC2)NC(=O)[C@@H]2CCCN2C1=O [Compound 40, Ac-Phe-[Orn-Pro-cha-Trp-Arg], reference compound]
Solubility in 20 mM HEPES pH 7.4 [1]: 94 % of 200 μM | solubility [1]: 94%

Molecule: CCCC[C@@H]1NC(=O)[C@H](Cc2c[nH]c3ccccc23)NC(=O)[C@@H](CC2CCCCC2)NC(=O)[C@@H]2CCCN2C(=O)[C@@H](NC(=O)[C@@H](N)Cc2ccccc2)CCCNC1=O [Compound 42, H-Phe-[Orn-Pro-cha-Trp-Nle]] (H-F[Orn]P[dCha]W[Nle]; lactam 2-C)
Solubility in 20 mM HEPES pH 7.4 [1]: 45 % of 200 μM | inhibitory activity (in words) (human C5aR (CD88) [2]; [6]): noteworthy inhibitory activity | agonistic activity (in words) (human C5aR (CD88) [3]): pure antagonists

Molecule: CCCC[C@@H]1NC(=O)[C@H](Cc2c[nH]c3ccccc23)NC(=O)[C@@H](CC2CCCCC2)NC(=O)[C@H](CO)NC(=O)[C@@H](NC(=O)[C@@H](N)Cc2ccccc2)CCCNC1=O [Compound 44, H-Phe-[Orn-Ser-cha-Trp-Nle]] (H-F[Orn]S[dCha]W[Nle]; lactam 2-C)
agonistic activity (in words) (human C5aR (CD88) [3]): pure antagonists

Molecule: CCCC[C@@H]1NC(=O)[C@H](Cc2c[nH]c3ccccc23)NC(=O)[C@@H](CC2CCCCC2)NC(=O)[C@@H]2CCCN2C(=O)[C@@H](NC(=O)[C@H](Cc2ccccc2)NC(=O)[C@H](CCCCN)NC(C)=O)CCCNC1=O [Compound 43, Ac-Lys-Phe-[Orn-Pro-cha-Trp-Nle]] (Ac-KF[Orn]P[dCha]W[Nle]; lactam 3-C)
Solubility in 20 mM HEPES pH 7.4 [1]: 93 % of 200 μM | inhibitory activity (in words) (human C5aR (CD88) [2]; [6]): noteworthy inhibitory activity | agonistic activity (in words) (human C5aR (CD88) [3]): pure antagonists

Molecule: CC(=O)N[C@@H](Cc1ccccc1)C(=O)N[C@H]1CCCNC(=O)[C@H](Cc2ccccc2)NC(=O)[C@H](Cc2c[nH]c3ccccc23)NC(=O)[C@@H](CC2CCCCC2)NC(=O)[C@@H]2C[C@@H](O)CN2C1=O [Compound 2, Ac-Phe-[Orn-Hyp-cha-Trp-Phe]] (Ac-F[Orn][Hyp][dCha]WF; lactam 2-C)
Solubility in 20 mM HEPES pH 7.4 [1]: 13 % of 200 μM | solubility [1]: 13% | inhibitory activity (in words) (human C5aR (CD88) [2]): noteworthy inhibitory activity | agonistic activity (in words) (human C5aR (CD88) [3]): pure antagonists

B1: hrC5a: hrC5a (Sigma) used for stimulation of the enzyme release; agonist control in Table 5 (protein)
chain: TLQKKIEEIAAKYKHSVVKKCCYDGACVNNDETCEQRAARISLGPRCIKAFTECCVVASQLRANISHKDMQLGR
EC50 (human C5aR (CD88) [3]; agonistic activity, no preincubation or addition of C5a): 2.4 nM

B4: Ac-Phe-Lys-Ala-Cha-Ala-Leu-ala-Tyr-OH (peptide)
peptide: Ac-FKA[Cha]AL[dA]Y-OH
SMILES: CC(=O)N[C@@H](Cc1ccccc1)C(=O)N[C@@H](CCCCN)C(=O)N[C@@H](C)C(=O)N[C@@H](CC1CCCCC1)C(=O)N[C@@H](C)C(=O)N[C@@H](CC(C)C)C(=O)N[C@H](C)C(=O)N[C@@H](Cc1ccc(O)cc1)C(=O)O
IC50 activity group, enzyme release assay (human C5aR (CD88) [4]): ≤ 2000 nM | IC50, functional assay as used in this application (human C5aR (CD88) [5]): 1300 nM

Reference: patent publication US7727960B2, “C5a receptor antagonists” (Jerini AG, priority 2003, dated 2010)
